Assay results published in US10807978B2, “Process for preparation of palbociclib” (DR. REDDY'S LABORATORIES LIMITED, priority 2016, dated 2020).

Experiment: Surface Area (BET method)
Assay type: physicochemical
Details: isolated palbociclib free base solid

Surface Area (BET method) [m^2/g] | Compound
3.61 | CC(=O)c1c(C)c2cnc(Nc3ccc(N4CCNCC4)cn3)nc2n(C2CCCC2)c1=O [Example 9, 6-acetyl-8-cyclopentyl-5-methyl-2-{[5-(piperazin-1-yl)pyridin-2yl]amino}-pyrido[2,3-d]pyrimidin-7(8H)-one]
9.38 | CC(=O)c1c(C)c2cnc(Nc3ccc(N4CCNCC4)cn3)nc2n(C2CCCC2)c1=O [Example 11, 6-acetyl-8-cyclopentyl-5-methyl-2-{[5-(piperazin-1-yl)pyridin-2yl]amino}-pyrido[2,3-d]pyrimidin-7(8H)-one]
